Tests used:
HSV-1 protease = molecular target: T1, HSV-1 protease (Human herpesvirus 1, UniProt P10210); experiment: Enzymatic assay for HSV-1 protease (assembly) inhibitor, fluorescence polarization; assay type: biochemical; conditions: read-out: HSV-1 Enzyme inhibition IC50
T1 construct: 6xHis (N); made in house; host or cells: baculovirus expression system
Procedure: An enzymatic assay method for an HSV-1 protease (assembly) inhibitor
The activity of an assembly protease was determined by fluorescence polarization. Biotin-gamma-amino butyrate-[…]-DTAF was used as a fluorescent substrate in accordance with an HSV-1 release and cleavage site. […] Changes in the sizes of fluorescent substrate molecules that increased with the use of avidin as a reaction terminator were assayed by fluorescence polarization.
The test compound was dissolved in DMF, and the resultant was diluted 5-fold with an assay buffer. 6.5 μl thereof was added to wells of a 96-well plate (a U-bottomed 96-well plate, Coster) that had previously been blocked with a blocking solution (10 mM Tris-HCl (pH 8.0), 150 mM sodium chloride, 0.05% Tween 20, 1 mg/ml of BSA). The enzyme was diluted to 21.3 μg/ml with an assay buffer (1M sodium citrate, 50 mM sodium phosphate (pH 7.4), 100 mM sodium chloride, 20% glycerol, 2 mM TCEP), and 48.5 μl of the resultant was added to each well. The plate was incubated at room temperature for 30 minutes, and 10 μl of 62.5 μg/ml substrate solution was then added to each well. The plate was incubated at room temperature for 60 minutes, and 50 μl of 2 mg/ml avidin phosphate buffer solution (50 mM sodium phosphate, 100 mM sodium chloride (pH 7.4)) was added to each well. The activity was determined in comparison with a compound without protease inhibitor using a microplate reader for fluorescence polarization.
HSV-1 protease was purified from a vaculovirus that had expressed a DNA construct encoding the reading frame for HSV-1UL26. This construct had further encoded 6 histidine residues at the amino terminus of the protease. These additional histidine residues impart affinity ligands purified by nickel-nitriloacetic acid-agarose (Qiagen). The purified protease was stored as a stock solution for a 20 mM HEPES buffer (pH 8.5, containing 20% v/v glycerin). This stock solution was diluted with an assay buffer and then used in the enzyme reaction.
In accordance with the cleavage specificity of the HSV-1 protease at the “release site” of the assembled protein, a specific substrate was synthesized (Diianni et al., J. Biol. Chem. 268, 2048 (1993)). This assembly protein-release site had the sequence • HTYLQA*SEKFKMW • , and the substrate used was biotin-gamma-amino butyrate-HTYLQA*SERFRIK-DTAF. This is a standard method for peptide synthesis, for example, as in the a method described in “The Practice of Peptide Synthesis” (Bodansky and Bodansky (1984)). The product was stored as a 2.5 mg/ml stock solution in DMF. The resultant was diluted to 62.5 μg/ml with a phosphate buffer (50 mM sodium phosphate, 100 mM sodium chloride, (pH 7.4)) immediately before its use.
An assay buffer (1M sodium citrate, 50 mM sodium phosphate (pH 7.4), 100 mM sodium chloride, 20% glycerol, 2 mM TCEP) was used to dilute a stock solution for the enzyme and that for the inhibitor.

HSV-1 = experiment: Antiviral activity, HSV-1 in Vero cells, plaque method; assay type: cell-based; conditions: 90% inhibition of plaque formation
Procedure: An Assay Method for Antiviral Activity These complementary assay methods examine the capacity of a compound to inhibit the generation of new viruses and to inhibit the toxicity of the compound against the host cell. Toxicity indirectly decreases the generation of viruses. Thus, it is important to simultaneously conduct both assays in order to directly compare the results. The Vero cells were sown on a 96-well plate and then cultured overnight. The culture supernatant was removed, and 100 μl of 2% FBS-DMEM containing 50,000 plaque-forming units (hereinafter abbreviated as “pfu”) of HSV-1 was added. A viral solution was removed and 200 μl of 2% FBS-DMEM comprising a test compound was added. In this case, a substance to which 2% FBS-DMEM not comprising any test compound had been added was determined as a control. These infected cells were incubated in the presence of 5% CO2 at 37° C. for 20 hours, and the medium was once allowed to freeze at −80° C. The culture solution was dissolved, and the amount of viruses in the culture solution was assayed by the plaque method. The concentration of the test compound when it inhibited 90% of plaque formation relative to the control was determined to be EC 90.

[1] = Human alphaherpesvirus 1, 20 hours

T1 sequence (P10210 1-247): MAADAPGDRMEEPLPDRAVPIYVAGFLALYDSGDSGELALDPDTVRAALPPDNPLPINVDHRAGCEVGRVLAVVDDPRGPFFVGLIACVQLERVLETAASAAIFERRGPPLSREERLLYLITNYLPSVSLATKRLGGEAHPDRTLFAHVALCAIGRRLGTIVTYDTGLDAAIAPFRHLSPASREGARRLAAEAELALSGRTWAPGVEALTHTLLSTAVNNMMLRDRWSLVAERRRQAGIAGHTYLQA

IC50 (HSV-1 protease) [nM] | EC90 (HSV-1; [1]) [nM] | SMILES | EC90 (HSV-1; 20 hours) [nM]
400 | > 12500 | Cc1c(NC(=O)CCCNC(=O)c2cccs2)ccc2nc(N[C@@H](C)C(=O)N(C)CCc3ccccn3)oc(=O)c12 [Compound No.218, Thiophene-2-carboxylic acid [3-(5-methyl-2-{1S-[methyl-(2-pyridin-2-yl-ethyl)-carbamoyl]-ethylamino}-4-oxo-4H-benzo[d][1,3]oxazin-6-ylcarbamoyl)-propyl]-amide] | 
300 | > 12500 | Cc1c(NC(=O)CCCNC(=O)c2ccc(C(F)(F)F)cc2)ccc2nc(NC(C)(C)C(=O)N(C)CCc3ccccn3)oc(=O)c12 [Compound No.213, N-[3-(5-Methyl-2-{1-methyl-1-[methyl-(2-pyridin-2-yl-ethyl)-carbamoyl]-ethylamino}-4-oxo-4H-benzo [d][1,3]oxazin-6-ylcarbamoyl)-propyl]-4-trifluoromethyl-benzamide] | 
700 | > 20000 | Cc1c(NC(=O)CCNC(=O)OC(C)(C)C)ccc2nc(NCC(=O)N(C)CCc3ccccn3)oc(=O)c12 [Compound No.228, {2-[5-Methyl-2-({[methyl-(2-pyridin-2-yl-ethyl)-carbamoyl]-methyl}-amino)-4-oxo-4H-benzo[d][1,3]oxazin-6-ylcarbamoyl]-ethyl}-carbamic acid tert-butyl ester] | 
2400 | > 20000 | Cc1c(NC(=O)CCNC(=O)OC(C)(C)C)ccc2nc(N[C@H](C)C(=O)N(C)CCc3ccccn3)oc(=O)c12 [Compound No.227, [2-(5-Methyl-2-{1R-[methyl-(2-pyridin-2-yl-ethyl)-carbamoyl]-ethylamino}-4-oxo-4H-benzo[d][1,3]oxazin-6-ylcarbamoyl)-ethyl]-carbamic acid tert-butyl ester] | 
3000 | > 12500 | Cc1c(NC(=O)CCNC(=O)c2ccc(C(F)(F)F)cc2)ccc2nc(N[C@@H](C)C(=O)N(C)CCc3ccccn3)oc(=O)c12 [Compound No.216, N-[2-(5-Methyl-2-{1S-[methyl-(2-pyridin-2-yl-ethyl)-carbamoyl]-ethylamino}-4-oxo-4H-benzo[d][1,3]oxazin-6-ylcarbamoyl)-ethyl]-4-trifluoromethyl-benzamide] | 
900 | > 12500 | Cc1c(NC(=O)CCCNC(=O)c2ccc(C(F)(F)F)cc2)ccc2nc(N[C@@H](C)C(=O)N(C)CCc3ccccn3)oc(=O)c12 [Compound No.219, N-[3-(5-Methyl-2-{1S-[methyl-(2-pyridin-2-yl-ethyl)-carbamoyl]-ethylamino}-4-oxo-4H-benzo[d][1,3]oxazin-6-ylcarbamoyl)-propyl]-4-trifluoromethyl-benzamide] | 
700 | > 12500 | CCCCc1ccc(C(=O)NCCC(=O)Nc2ccc3nc(NC(C)(C)C(=O)N(C)CCc4ccccn4)oc(=O)c3c2C)cc1 [Compound No.211, 4-Butyl-N-[2-(5-methyl-2-{1-methyl-1-[methyl-(2-pyridin-2-yl-ethyl)-carbamoyl]-ethylamino}-4-oxo-4H-benzo[d][1,3]oxazin-6-ylcarbamoyl)-ethyl]-benzamide] | 

Further lines, the molecule ahead of its results:

SMILES | IC50 (HSV-1 protease) [nM] | EC90 (HSV-1; [1]) [nM] | EC90 (HSV-1; 20 hours) [nM]
Cc1c(NC(=O)OC(C)(C)C)ccc2nc(NC3(C(=O)N(C)CCc4cccnc4)CCCC3)oc(=O)c12 [Compound No.126, (5-Methyl-2-{1-[methyl-(2-pyridin-3-yl-ethyl)-carbamoyl]-cyclopentylamino}-4-oxo-4H-benzo[d][1,3]oxazin-6-yl)-carbamic acid tert-butyl ester] | 400 | 8600 | 
Cc1c(NC(=O)CCNC(=O)OC(C)(C)C)ccc2nc(N(C)CC(=O)N(C)CCc3ccccn3)oc(=O)c12 [Compound No.226, {2-[5-methyl-2-(methyl-{[methyl-(2-pyridin-2-yl-ethyl)-carbamoyl]-methyl}-amino)-4-oxo-4H-benzo[d][1,3]oxazin-6-ylcarbamoyl]-ethyl}-carbamic Acid Tert-Butyl Ester] | 1000 | > 20000 | 
Cc1c(NC(=O)CCCNC(=O)OCc2ccccc2)ccc2nc(NC(C)(C)C(=O)N(C)CCc3ccccn3)oc(=O)c12 [Compound No.204, [3-(5-Methyl-2-{1-methyl-1-[methyl-(2-pyridin-2-yl-ethyl)-carbamoyl]-ethylamino}-4-oxo-4H-benzo[d][1,3]oxazin-6-ylcarbamoyl)-propyl]-carbamic acid benzyl ester] | 300 | > 12500 | 
Cc1c(NC(=O)OC(C)(C)C)ccc2nc(NC3(C(=O)N(C)CCc4ccccn4)CCCCC3)oc(=O)c12 [Compound No.124, (5-Methyl-2-{1-[methyl-(2-pyridin-2-yl-ethyl)-carbamoyl]-cyclohexylamino}-4-oxo-4H-benzo[d][1,3]oxazin-6-yl)-carbamic acid tert-butyl ester] | 1000 | 6100 | 
Cc1c(NC(=O)OC(C)(C)C)ccc2nc(NC3(C(=O)N(C)Cc4ccncc4)CCCC3)oc(=O)c12 [Compound No.121, {5-Methyl-2-[1-(methyl-pyridin-4-ylmethyl-carbamoyl)-cyclopentylamino]-4-oxo-4H-benzo[d][1,3]oxazin-6-yl}-carbamic acid tert-butyl ester] | 2800 | 11500 | 
Cc1c(NC(=O)CCNC(=O)OC(C)(C)C)ccc2nc(NC(C)(C)C(=O)N(C)CCc3ccccn3)oc(=O)c12 [Compound No.201, [2-(5-methyl-2-{1-methyl-1-[methyl-(2-pyridin-2-yl-ethyl)-carbamoyl]-ethylamino}-4-oxo-4H-benzo[d][1,3]oxazin-6-ylcarbamoyl)-ethyl]-carbamic Acid Tert-Butyl Ester] | 1100 | > 12500 | 
Cc1c(NC(=O)OC(C)(C)C)ccc2nc(NC(C)(C)C(=O)N(C)CCc3ccccc3)oc(=O)c12 [compound 229, {5-Methyl-2-[1-methyl-1-(methyl-phenethyl-carbamoyl)-ethylamino]-4-oxo-4H-benzo[d][1,3]oxazin-6-yl}-carbamic acid tert-butyl ester, reference compound] | 12200 | 6600 | 
CCC(CC)C(=O)Nc1ccc2nc(NC(C)(C)C(=O)N(C)CCc3ccccn3)oc(=O)c2c1C [Compound No.197, 2-Ethyl-N-(5-methyl-2-{1-methyl-1-[methyl-(2-pyridin-2-yl-ethyl)-carbamoyl]-ethylamino}-4-oxo-4H-benzo[d][1,3]oxazin-6-yl)-butylamide] | 7200 |  | ≥ 12500
Cc1c(NC(=O)OC(C)(C)C)ccc2nc(NC3(C(=O)N(C)CCc4cccnc4)CC3)oc(=O)c12 [Compound No.125, (5-Methyl-2-{1-[methyl-(2-pyridin-3-yl-ethyl)-carbamoyl]-cyclopropylamino}-4-oxo-4H-benzo[d][1,3]oxazin-6-yl)-carbamic acid tert-butyl ester] | 2100 | > 12500 | 
Cc1c(NC(=O)OC(C)(C)C)ccc2nc(NC3(C(=O)N(C)CCc4ccncc4)CC3)oc(=O)c12 [Compound No.127, (5-Methyl-2-{1-[methyl-(2-pyridin-4-yl-ethyl)-carbamoyl]-cyclopropylamino}-4-oxo-4H-benzo[d][1,3]oxazin-6-yl)-carbamic acid tert-butyl ester] | 1800 | > 12500 | 
Cc1c(NC(=O)c2cccs2)ccc2nc(NC(C)(C)C(=O)N(C)CCc3ccccn3)oc(=O)c12 [Compound No.134, Thiophene-2-carboxylic Acid (5-methyl-2-{1-methyl-1-[methyl-(2-pyridin-2-yl-ethyl)-carbamoyl]-ethylamino}-4-oxo-4H-benzo[d][1,3]oxazin-6-yl)-amide] | 900 | > 12500 | 

From patent publication US20040116420A1 (priority 2001, published 2004)
